PubChem BioAssay (NCI)
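Dose response: 5 concentrations. Exposure: 48 h. Format: 96-well plates. Endpoint: linear interpolation; highest concentration if not reached. GI50 = concentration required for 50% inhibition of growth. The concentration for full growth arrest is given as TGI.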

Key:
Assay in all cases: inhibition of tumour cell growth, NCI panel, 48 h
SNB-75 CNS = test system: SNB-75 CNS
IGROV1 ovarian = test system: IGROV1 ovarian
SK-OV-3 ovarian = test system: SK-OV-3 ovarian
A498 renal = test system: A498 renal
DU-145 prostate = test system: DU-145 prostate
MDA-MB-435 = test system: MDA-MB-435
SNB-19 CNS = test system: SNB-19 CNS
NCI-H23 lung = test system: NCI-H23 lung
EKVX NSCLC = test system: EKVX NSCLC
PC-3 prostate = test system: PC-3 prostate

SMILES	GI50 (SNB-75 CNS)	TGI (SNB-75 CNS)	GI50 (IGROV1 ovarian)	TGI (IGROV1 ovarian)	GI50 (SK-OV-3 ovarian)	TGI (SK-OV-3 ovarian)	GI50 (A498 renal)	TGI (A498 renal)	GI50 (DU-145 prostate)	TGI (DU-145 prostate)	GI50 (MDA-MB-435)	TGI (MDA-MB-435)	GI50 (SNB-19 CNS)	TGI (SNB-19 CNS)	GI50 (NCI-H23 lung)	TGI (NCI-H23 lung)	GI50 (EKVX NSCLC)	TGI (EKVX NSCLC)	GI50 (PC-3 prostate)	TGI (PC-3 prostate)
N/C(=N/S(=O)(=O)c1cc(C(=O)Nc2ccc(F)cc2)c(Cl)cc1SCc1ccccc1)Nc1ccccc1O	1.96 µM	3.84 µM	1.88 µM	3.57 µM	2.06 µM	4.2 µM	16.3 µM	30.5 µM	1.83 µM	3.56 µM	1.76 µM	3.19 µM	4.29 µM	> 100 µM	2.04 µM	3.86 µM	1.81 µM	4.46 µM	2.08 µM	4.61 µM
CC(C)(C)OC(=O)N1Cc2cc3ccccc3nc2C1CO (configuration not stated)	> 100 µM	> 100 µM	> 100 µM	> 100 µM	> 100 µM	> 100 µM	> 100 µM	> 100 µM	> 100 µM	> 100 µM	> 100 µM	> 100 µM	> 100 µM	> 100 µM	> 100 µM	> 100 µM	> 100 µM	> 100 µM	> 100 µM	> 100 µM
CCOC(=O)CCSC1=CC(=O)c2nc3ccccc3c3ccnc1c23	39 µM	> 100 µM	22.7 µM	> 100 µM	29.3 µM	93.4 µM	> 100 µM	> 100 µM	16 µM	33.2 µM	17.8 µM	37.7 µM	20.5 µM	51.6 µM	16.3 µM	43.3 µM	29.4 µM	76.4 µM	13.5 µM	38.7 µM
NC(=O)c1ncn2c(=O)n(CCCl)nnc12	23.7 µM	205 µM		482 µM		130 µM		375 µM		520 µM		388 µM	69 µM	995 µM	> 72.8 µM	330 µM		436 µM		534 µM
OCC1OC(n2cnc3c(NCc4ccco4)ncnc32)C(O)C1O (configuration not stated)	1.73 µM	> 28.1 µM	2.09 µM	13.9 µM	1.6 µM	14.2 µM	1.59 µM	5.5 µM	1.27 µM	4.14 µM	2.08 µM	15.1 µM	3.99 µM	> 100 µM	2.87 µM	31.8 µM	4.73 µM	81.7 µM	1.33 µM	19.1 µM
C=C1C(=O)O[C@H]2[C@H]1CC/C(COC(=O)/C=C\C(=O)NCc1ccc(Cn3c(=O)sn(-c4ccc(Cl)cc4)c3=O)cc1)=C\CC[C@@]1(C)O[C@@H]21	0.623 µM	1.31 µM	0.638 µM	1.36 µM	4.04 µM	10.7 µM	0.741 µM	1.43 µM	0.638 µM	1.3 µM	0.647 µM	1.33 µM	0.831 µM	1.67 µM	0.884 µM	1.88 µM	0.809 µM	1.58 µM	0.599 µM	1.39 µM
CN(C)C/C=C/C(=O)Nc1cc2c(Nc3cccc(Cl)c3F)ncnc2cc1OCCOC(F)F	0.494 µM	3.79 µM	< 0.0142 µM	1.07 µM	< 0.01 µM	0.275 µM	0.423 µM	2.22 µM	0.317 µM	10.7 µM	2.22 µM	11.2 µM	1.97 µM	13.3 µM	2.07 µM	10.2 µM		6.1 µM	2.38 µM	13.6 µM
NS(=O)(=O)c1cc(C(=O)O)c(Cl)c([N+](=O)[O-])c1Cl		> 100 µM		> 100 µM		> 100 µM		> 100 µM		> 100 µM		> 100 µM		> 100 µM		> 100 µM		> 100 µM		> 100 µM
CC1(C)CN(CCNc2nccc(-c3c(-c4cccc(O)c4)nc4sccn34)n2)S(=O)(=O)N1	5.14 µM	> 33.2 µM	6.58 µM	> 33.2 µM	7.86 µM	> 33.2 µM	1.55 µM	19.7 µM	7.48 µM	> 33.2 µM	0.641 µM	> 33.2 µM	> 33.2 µM	> 33.2 µM	16.8 µM	> 33.2 µM	> 33.2 µM	> 33.2 µM	17.1 µM	> 33.2 µM
Oc1ccc(/C=N/NC(=S)Nc2cccnc2)nc1		97 µM		> 100 µM		> 100 µM		> 81.2 µM		> 89.4 µM		> 100 µM		> 100 µM		61.9 µM		> 100 µM		> 100 µM
C[C@@H](Oc1cc(-c2cnn(C3CCNCC3)c2)cnc1N)c1c(Cl)cc(F)cc1Cl	1.65 µM	4.38 µM	3.31 µM	16.7 µM	3.26 µM	10.8 µM	1.3 µM	3.82 µM	3.25 µM	13.6 µM	0.749 µM	9.42 µM	3.46 µM	14.3 µM	1.93 µM	14.8 µM	3.72 µM	17.3 µM	1.99 µM	14.7 µM
